# In patent US20050251869A1, “Animal model for raising HDL-cholesterol with niacin” (priority 2004, published 2005):
# Where two headings read alike, the source gives them in different places.
# Tests used:
# [1] = test system: human-CETP/human-apoA1 dual-transgenic mice; conditions: 1% niacin in diet, one week
# Text: In addition, hemizygous human-CETP/human-apolipoprotein A1 dual-transgenic mice were generated by cross-breeding homozygous human-CETP transgenic male mice, purchased from Taconic, with homozygous human-apolipoprotein A1 transgenic female mice, purchased from Jackson Laboratories.
# Methods: Mice used in this study express both human CETP and human apolipoprotein A1 genes. The mice were generated by cross-breeding homozygous human-CETP transgenic male mice with homozygous female human-apolipoprotein A1-transgenic mice. Female mice (˜10 weeks of age, 10/group) were fed a normal rodent chow diet (Purina 7012) with or without 1% niacin (milled with the feed). They were housed with normal lighting and were allowed access to food and water ad lib. After seven days of treatment, the mice were fasted for four hours and then euthanized. Blood samples were collected by cardiac puncture. Serum lipids (total cholesterol, HDL-cholesterol, TG and FFA, and lipoprotein profiles) were determined.
# [2] = test system: wild type C57BI/6J control mice; conditions: for change in HDL-C compared with untreated WT mice: 1% niacin in diet
# Text: (§1) Materials: The mice used in these studies were pathogen-free C57BI/6J mice of the following genotypes: (1) wild type; (2) hemizygous human CETP-transgenic (hCETP-tg); (3) hemizygous human apoB100-transgenic, and 4) hemizygous human CETP and apoB100 dual-transgenic mice. The transgenic mice were purchased from Taconic Laboratories, Germantown, N.Y., where they were generated by introduction of genomic DNA fragments that drive expression of human CETP and/or apoB100 in the mouse liver (8-10).
# (§2) Methods: Male mice (hCETP-tg and wild type C57BI/6J control mice; ˜10 weeks of age; 5-7/group) were used in this study. The mice were fed a normal rodent chow diet (Purina 7012) along with varying levels of niacin (milled with diet, expressed as % by weight of diet). They were housed with normal lighting and were allowed access to food and water ad lib. Blood samples were obtained by retro-orbital plexus at one, two and three weeks of treatment. After the fourth week of treatment, the mice were fasted for four hours and then euthanized. After euthanization, blood samples were collected by cardiac puncture. Serum lipids (total cholesterol, HDL-cholesterol, TG and FFA, and lipoprotein profiles) were determined. Serum samples from four weeks of treatment were also measured for CETP enzyme activity.
# [3] = test system: hemizygous human-CETP/ApoB100 dual transgenic mice
# Text: Methods: This example is a study of the lipid modulating effect of niacin in human CETP and Apo-B100 dual transgenic mice. These mice have a more human-like lipoprotein profile than WT mice, with a lower HDUnon-HDL-C ratio.
# Mice (hemizygous human-CETP/ApoB100 dual transgenic mice, ˜10 weeks of age, 7-8/group) were fed a normal rodent chow diet (Purina 7012) along with varying levels of niacin (milled with the feed). They were housed with normal lighting and were allowed access to food and water ad lib. Blood samples were obtained by retro-orbital plexus after one week of treatment. After two weeks of treatment, the mice were fasted for four hours and then euthanized. Blood samples were collected by cardiac puncture. Serum lipids (total cholesterol, HDL-cholesterol, TG and FFA, and lipoprotein profiles) were determined.
# [4] = test system: hemizygous human CETP-transgenic (hCETP-tg) mice; test: Example 1: four-week niacin-in-diet study, serum lipids, hCETP-tg mice; type: in vivo, mouse; conditions: for change in HDL-C compared with untreated h-CETP-tg mice: 1% niacin in diet
# Text: as §1, §2
# hCETP-tg mice = conditions: for increase of HDL-C / reduction of TG: 1% niacin in diet
# Text: as §2
# Blood samples were obtained by retro-orbital plexus after one week of treatment, as in Example 1. After two weeks of treatment, the mice were fasted for four hours and then euthanized. Blood samples were collected by cardiac puncture. Serum lipids (total cholesterol, HDL-cholesterol, total triglyceride and FFA) were determined.
# [5] = test system: human ApoB 100 transgenic mice; conditions: experiments similar to Examples 1 and 2
# Text: as §1
# [6] = one week of treatment with niacin in diet
# [7] = size exclusion chromatography, after two weeks of treatment
# [8] = hCETP-tg mice, niacin in diet, appears dose-dependent
# [9] = lipoprotein profiles by size exclusion chromatography
compound,measurement,setting,value
"O=C(O)c1cccnc1 [niacin, nicotinic acid]",elevation of HDL-C,[1]; female mice,~38%
same,reduction of TG,[1]; female mice,53%
same,reduction of non-HDL-C,[1]; female mice,39%
same,Non-HDL-C,[1]; male mice,did not change significantly
same,elevation of HDL-C,[1]; male mice,27%
same,reduction of TG,[1]; male mice,36%
same,change in HDL-C compared with untreated WT mice,[2]; 1 week,−9%
same,change in HDL-C compared with untreated WT mice,[2]; 2 weeks,−17%
same,change in HDL-C compared with untreated WT mice,[2]; 3 weeks,−13%
same,change in HDL-C compared with untreated WT mice,[2]; 4 weeks,−7%
same,"serum lipids, including TG, total cholesterol, HDL-C, non-HDL-C, and FFA","[2]; wild-type control mice, niacin in diet",broad reduction
same,increase in HDL-C,"[3]; 0.1% niacin in diet, two weeks",41%
same,decrease in HDL-C,"[3]; 0.3% niacin in diet, two weeks",5%
same,increase in HDL-C,"[3]; 1% niacin in diet, two weeks",15%
same,TC and TG,[3]; [6],decrease
same,amount of HDL-C,[3]; [6],without a significant change
same,TG in the VLDL and LDL fractions,[3]; [7],decrease
same,cholesterol in the HDL fractions,[3]; [7],increase
same,cholesterol in the LDL fractions,[3]; [7],decrease
same,change in HDL-C compared with untreated h-CETP-tg mice,[4]; 1 week,+40%
same,change in HDL-C compared with untreated h-CETP-tg mice,[4]; 2 weeks,+38%
same,change in HDL-C compared with untreated h-CETP-tg mice,[4]; 3 weeks,+37%
same,change in HDL-C compared with untreated h-CETP-tg mice,[4]; 4 weeks,+23%
same,FFA,[4]; [8],reduction
same,HDL-cholesterol,[4]; [8],increase
same,TG,[4]; [8],reduction
same,non-HDL cholesterol,[4]; [8],reduction
same,TG in the VLDL fractions,[4]; [9],decline
same,cholesterol in the HDL fractions,[4]; [9],rise
same,increase of HDL-C,hCETP-tg mice; one week of treatment,35%
same,reduction of TG,hCETP-tg mice; one week of treatment,44%
same,increase of HDL-C,hCETP-tg mice; two weeks of treatment,37%
same,reduction of TG,hCETP-tg mice; two weeks of treatment,45%
same,HDL particle size,hCETP-tg mice; [9],without significant change
same,"TG contents of VLDL, LDL and HDL particles",hCETP-tg mice; [9],all reduced
same,cholesterol content in the HDL particles,hCETP-tg mice; [9],increase
same,cholesterol content of the LDL and VLDL particles,hCETP-tg mice; [9],reduced
same,level of HDL-C,[5],does not raise
